Twelve compounds from ChEMBL document CHEMBL4342436, “Artemisia: a promising plant for the treatment of cancer” (Bioorg Med Chem, 2020) can be followed below.

Experiment [1] has as its system SW-620. Description: Antitumour activity against human SW620 cells xenografted in mouse assessed as inhibition of tumour growth at 60 mg/kg relative to control. It counts as functional. The following applies: read-out: TGI.
Experiment [2] relates to MDA-MB-435. Description: Cytotoxicity against human MDA-MB-435 cells after 72 hrs by MTT assay. It counts as functional, cell-based. The following applies: MDA-MB-435, 72 h.
Experiment [3] has as its system COLO 205. Description: Cytotoxicity against human COLO205 cells after 72 hrs by MTT assay. It counts as functional, cell-based. The following applies: COLO 205, 72 h. (Tetrazolium assays rely on reduction of a dye to a coloured formazan, in cell work by metabolically active cells.)
Experiment [4] concerns HT-29. In words: Cytotoxicity against human HT-29 cells. The following applies: read-out: ED50 (the source's name). The experiment is classed as functional.
Experiment [5] concerns P388. In words: Cytotoxicity against mouse P388 cells. The experiment is classed as functional. The following applies: read-out: ED50 (the source's name).
Experiment [6] deals with MCF7. In words: (§1) Cytotoxicity against human MCF7 cells. The experiment is classed as functional. The following applies: read-out: ED50 (the source's name).
Experiment [7] has as its system KB. In words: (§2) Cytotoxicity against human KB cells. It counts as functional. The following applies: read-out: ED50 (the source's name).
Experiment [8] relates to DU-145. Description: Growth inhibition of human DU145 cells at 200 uM after 24 hrs by WST-1 assay relative to control. The following applies: DU-145, 24 h, read-out: GI. It counts as functional.
Experiment [9] deals with HL-60. Description: Antiproliferative activity against human HL60 cells assessed as reduction in cell viability after 3 days by XTT assay. It counts as functional, cell-based. The following applies: HL-60, 72 h.
Experiment [10] relates to NCI-H460. Description: Cytotoxicity against human NCI-H460 cells after 24 hrs by MTT assay. It counts as functional, cell-based. The following applies: NCI-H460, 24 h.
For experiment [11], the system named is MCF7. In words: Cytotoxicity against human MCF7 cells after 24 hrs by MTT assay. It counts as functional, cell-based. The following applies: MCF7, 24 h.
In experiment [12] the test system is HepG2. Description: Cytotoxicity against human HepG2 cells after 24 hrs by MTT assay. The following applies: HepG2, 24 h. The experiment is classed as functional, cell-based.
Experiment [13] relates to HeLa. In words: Cytotoxicity against human HeLa cells assessed as reduction in cell viability after 24 hrs by MTT assay. It counts as functional, cell-based.
A short description of experiment [14]: Cytotoxicity against human HO8910 cells assessed as reduction in cell viability after 24 hrs by MTT assay. The following applies: HO-8910, 24 h. It counts as functional, cell-based.
Experiment [15] is described as follows: Cytotoxicity against human 95-D cells assessed as reduction in cell viability after 24 hrs by MTT assay. The experiment is classed as functional, cell-based.
The nature of experiment [16]: Cytotoxicity against human QGY cells assessed as reduction in cell viability after 24 hrs by MTT assay. The experiment is classed as functional, cell-based.
For experiment [17], the system named is HCT-116. In words: Cytotoxicity against human p53 positive HCT116 cells assessed as reduction in cell viability after 48 hrs by MTT assay. It counts as functional. The following applies: HCT-116, 48 h, read-out: LD50 (the source's name).
The subject of experiment [18] is HepG2. Description: Cytotoxicity against human HepG2 cells. The experiment is classed as functional, cell-based.
The subject of experiment [19] is KB. The description is as §2. It counts as functional, cell-based.
Experiment [20] has as its system LNCaP. Description: Cytotoxicity against human LNCAP cells. It counts as functional, cell-based.
Experiment [21] concerns MCF7. The description is as §1. The experiment is classed as functional, cell-based.
The subject of experiment [22] is SK-MEL-2. In words: Cytotoxicity against human SK-MEL-2 cells. It counts as functional, cell-based.
Experiment [23] deals with HT-29. In words: Cytotoxicity against human HT-29 cells after 24 hrs by MTT assay. The experiment is classed as functional, cell-based. The following applies: HT-29, 24 h.
In experiment [24] the test system is MIA PaCa-2. In words: Cytotoxicity against human MIAPaCa2 cells after 24 hrs by MTT assay. It counts as functional, cell-based. The following applies: MIA PaCa-2, 24 h.
Experiment [25] deals with HEp-2. In words: Cytotoxicity against human Hep2 cells after 24 hrs by MTT assay. The experiment is classed as functional, cell-based. The following applies: HEp-2, 24 h.
Experiment [26] concerns A549. In words: Cytotoxicity against human A549 cells after 24 hrs by MTT assay. The following applies: A549, 24 h. The experiment is classed as functional, cell-based.
The subject of experiment [27] is BGC-823. In words: Cytotoxicity against human BGC823 cells. The experiment is classed as functional, cell-based.
Experiment [28] relates to HCT-8. In words: Cytotoxicity against human HCT8 cells. The experiment is classed as functional, cell-based.

Converted amounts (≈) assume the structure as drawn.

As to `COc1ccc(-c2cc(=O)c3c(O)c(O)c(OC)cc3o2)cc1OC`, the inhibition in vivo at 60 mg/kg in [1] was found to be 44.6%.
On to `C=C1C(=O)O[C@H]2[C@H]1[C@@H](O)C[C@]1(C)O[C@@]13C(=O)C=C(C)[C@H]23`, for which the concentration for half-maximal inhibition (IC50) in [2] and in [3] was 7 to 10 µM each time.
`C=C1C(=O)O[C@H]2[C@H]1[C@@H](OC(=O)C(C)CC)CC(=C)[C@]1(O)CC=C(C)[C@H]21` (some centres not stated): the half-inhibitory concentration (IC50) in experiment [2] and in experiment [3] was 7 to 10 µM each time.
Turning to `COc1ccc(-c2oc3cc(OC)c(OC)c(O)c3c(=O)c2O)cc1OC`, the EC50 in [4], in experiment [5], in [6] and in [7] was 1.25 to 9.62 µg/mL (≈ 3.34 to 25.7 µM) each time.
For the compound `COc1cc(-c2cc(=O)c3c(O)c(O)c(OC)cc3o2)ccc1O`, in [1], the inhibition in vivo at 60 mg/kg came to 14.6%.
Regarding `COc1c(O)cc2oc(Oc3ccc(O)cc3)cc(=O)c2c1O`, in [8], the inhibition of growth at 200 µM was found to be 20%. In experiment [9], the half-maximal inhibitory concentration (IC50) (commonly the midpoint of a concentration-inhibition curve) fell in the range of 1.1 to 40.7 µg/mL (≈ 3.48 to 129 µM).
As to `CC1=C[C@@H]2[C@@H]([C@@H](C)C(=O)O)CC[C@@](C)(O)[C@@H]2C[C@H]1O`, the IC50 in experiment [10], in experiment [11] and in experiment [12] was 26.8 to 48.7 µM throughout.
Turning to `C=CC(=C)CC/C=C(/CCC=C(C)C)COC(C)=O`, the 50% inhibitory concentration (IC50) in experiment [13], in experiment [14], in [15] and in experiment [16] was 17.9 to 73.3 µM in each case.
On to `CCCCCCCCCCCCCCCCCCCCCCOC(=O)/C=C/c1ccc(O)cc1`, for which the CC50 in experiment [17] is 33.8 µM.
`C=C1C(=O)O[C@H]2[C@H]1CC[C@@](C)(O)C1=C[C@H](O)[C@@](C)(O)[C@@H]12`: the IC50 in experiment [18], in experiment [19], in [20], in experiment [21] and in experiment [22] was greater than 100 µM each time.
Consider `CC#CC#CC(=O)c1ccccc1`, for which the half-inhibitory concentration (IC50) in experiment [9] fell in the range of 1.1 to 40.7 µg/mL (≈ 6.54 to 242 µM); in [23], 0.6 to 6.1 µM; in experiment [24], 0.6 to 6.1 µM; in experiment [25] it was 0.6 to 6.1 µM; in [26], 0.6 to 6.1 µM.
On to `C=C(C(=O)OC)[C@@H]1CC[C@@]2(C)C(=O)C=C[C@@](C)(O)[C@@H]2[C@H]1O`, for which the IC50 is 6.25 µM in [27] and 9.13 µM in experiment [28].
